One assay concerns Th0 cells. Briefly: Th0 polarization, IFN-γ by flow cytometry (Figure 1E). It counts as cell-based, mouse. Here is the method:
Naive CD4^+ T cells were isolated from the spleens of C57BL/6J or CD45.1^+ OT-II mice using the MojoSort Mouse CD4 Naive T Cell Isolation Kit (BioLegend, catalog 480040), following the manufacturer’s protocol. Purified cells were cultured in RPMI-1640 medium supplemented with 10% FBS, 1% penicillin-streptomycin, and 0.1% β-mercaptoethanol (Gibco, catalog 21985023).
T cell polarization was initiated under plate-bound anti-CD3 (2 μg/mL, clone 17A2, BioXCell, catalog BE0002) and soluble anti-CD28 (1 μg/mL, clone 37.51, BioXCell, catalog BE0015-1) stimulation, with the addition of cytokines and neutralizing antibodies specific to each subset. For Th9 cells, these included IL-4 (10 ng/mL, Peprotech, catalog 400-04), TGF-β (1 ng/mL, EPOTO Biotech, catalog HF-2021), anti–IL-12 (5 μg/mL, clone C17.8, BioXCell, catalog BE0051), and anti–IFN-γ (10 μg/mL, clone XMG1.2, BioXCell, catalog BE0055); for Th1 cells, these included IL-12 (10 ng/mL, GenScript, catalog Z03211-50) and anti–IL-4 (5 μg/mL, clone 11B11, BioXCell, catalog BE0045); for Th2 cells, these included IL-4 (50 ng/mL), anti–IFN-γ (20 μg /mL), anti–IL-12 (5 μg/mL), Th17 cells: IL-6 (20 ng/mL, EPOTO Biotech, catalog MF-1006), TGF-β (1 ng/mL), IL-1β (10 ng/mL, Peprotech, catalog AF-211-11B), anti–IFN-γ (10 μg/mL), anti–IL-12 (5 μg/mL), and anti–IL-4 (5 μg/mL); and for Tregs, these included TGF-β (3 ng/mL). […]
Background: Flow cytometry measures light scatter and fluorescence of single cells or particles in a stream.

The next assay deals with endogenous CD8+ T cells. Briefly: Cytokines and granzyme B/perforin in endogenous CD8+ T cells (Figure 3H, S4D-F). Set-up: TNF-α expression / IFN-γ expression / Expression of IFN-g of endogenous CD8⁺ T cells in tumor / Expression of TNF-α of endogenous CD8⁺ T cells in tumor: unit not given here. Particulars: for Expression of IFN-g of endogenous CD8⁺ T cells in tumor: Supplemental Figure 4D; for Expression of TNF-α of endogenous CD8⁺ T cells in tumor: Supplemental Figure 4E; for Expression of GzmB+Perforin+ of endogenous CD8⁺ T cells in tumor: Supplemental Figure 4F. In kind it is in vivo, mouse. The method, then: C57BL/6 mice were subcutaneously injected with 5 × 10^5 B16-OVA melanoma cells. Five days after tumor implantation, mice received an intravenous infusion of 2 × 10^6 in vitro–differentiated Th9 cells (cultured for 5 days), which were derived from OT-II CD45.1 donor mice, accompanied by 4 × 10^5 OVA peptide–pulsed DCs via the tail vein. To enhance T cell engraftment and facilitate lymphodepletion, a single intraperitoneal injection of cyclophosphamide (200 mg/kg, Sigma, catalog C0768) was administered 1 day prior to T cell transfer. Mice were euthanized at designated time points for the collection and analysis of spleens, tumor-draining lymph nodes, and tumor tissues.
Details regarding staining panels (human and mouse), reagents (including clones and catalog numbers), acquisition settings, compensation/controls, and analysis procedures are provided in Supplemental Methods.
BioLegend, Cat. No. 422301 or Mouse TruStain FcX™, BioLegend, Cat. No. 101319) for 10 minutes at 4°C. For surface marker detection, cells were stained with fluorochrome-conjugated monoclonal antibodies in 96-well V-bottom plates and incubated on ice for 30 minutes. After staining, cells were washed twice and resuspended in FACS buffer for analysis.
Prior to intracellular cytokine staining, cells were restimulated for 4 hours with PMA (Absin, Cat. No. abs9107), ionomycin (Sigma-Aldrich, Cat. No. I0634), and brefeldin A (MedChemExpress, Cat. No. HY-16592). For intracellular cytokine staining, cells were first surface-stained as described above, then fixed and permeabilized using the BD Cytofix/Cytoperm™ kit (BD Biosciences, Cat. No. 554714) according to the manufacturer ’s protocol. Intracellular proteins were stained with directly conjugated antibodies targeting IL-9, IL-17a, IL-4, IFN-γ, TNF-α, FOXP3, p-ZAP70, Perforin, and […]
Antibodies used for mouse samples included those against IL-9 (PE, clone RM9A4, Biolegend, Cat. No. 514104), IFN-γ (PE, clone XMG1.2, Biolegend, Cat. No.
Cat. No. 103138), CD4 (APC/Cy7, clone E-AB-F1353UJ, Elabscience, Cat. No.
AF18028), CD8α (PerCP/Cy5.5, clone E-AB-F1104UJ, Elabscience, Cat. No. […]
clone E-AB-F1187UH, Elabscience, Cat. No. AF19854), TNF-α (BV421, clone MP6-XT22, Biolegend, Cat. No. 506328), FOXP3 (PE, clone FJK-16s, eBioscience, Cat. No.
Perforin (APC, clone S16009A, Biolegend, Cat. No. 154303) and Granzyme B (APC, clone QA16A02, Biolegend, Cat. No. 372203). For human samples, antibodies against CD4 (PerCP/Cy5.5, clone RPA-T4, Biolegend, Cat. No. 300530; APC/Cy7, clone OKT4, Biolegend, Cat. No. 317418), CD19 (APC/Cy7, clone SJ25C1, Biolegend, Cat.
No. 363009), IFN-γ (PE, clone 4S.B3, Biolegend, Cat. No. 502509), IL-9 (PE, clone

Setting [1] is: endogenous CD8+, spleen, individual mice, n = 4.

“And” between values parts separate entries of the source, which are not always exact repeats. Equal values may be shown once.

Turning to anteiso-C15 Leu7 surfactin [EpA], the “IFN-γ expression under Th0 polarization” value in the assay on Th0 cells (EpA 10 μM, individual replicates, n = 4) was 31 and 32.2 and 35 and 26.8. For the same substance, the “effect on Th0 polarization” value in the assay on Th0 cells (result in words) was “did not affect”. Further, the “GzmB+ PRF1+ gate number” value with endogenous CD8+ T cells (CD8+ T cells in tumors, representative flow plot, Figure S4F) worked out at 30.0. Also, in the assay with endogenous CD8+ T cells (setting [1]), the “GzmB and Perforin expression” value was 76.8 and 76 and 70.2 and 67.3; the IFN-γ expression is 11.6 and 15.2 and 19.5 and 6.9; the TNF-α expression is 6.15 and 4.55 and 6.06 and 5. Moreover, in the assay on endogenous CD8+ T cells (spleen, result in words), the “TNF-α expression of CD8+ T cells” value is reported as “remained unchanged” and the “granzyme B+ perforin+ CD8+ T cells” value is recorded as “pronounced increase”. In the assay with endogenous CD8+ T cells (replicate 1), the “Expression of IFN-g of endogenous CD8⁺ T cells in tumor” value (shortened to “Expression of IFN-g … in tumor”) worked out at 2162, the “Expression of TNF-α of endogenous CD8⁺ T cells in tumor” value (“Expression of TNF-α … in tumor” below) worked out at 989 and the “Expression of GzmB+Perforin+ of endogenous CD8⁺ T cells in tumor” value (from here on “Expression of GzmB+Perforin+ … in tumor”) is 28.2. In addition, in the assay with endogenous CD8+ T cells (replicate 2), the “Expression of IFN-g … in tumor” value stood at 2256, the “Expression of TNF-α … in tumor” value turned out to be 542 and the “Expression of GzmB+Perforin+ … in tumor” value worked out at 30. In the assay on endogenous CD8+ T cells (replicate 3), the “Expression of IFN-g … in tumor” value came to 2381, the “Expression of TNF-α … in tumor” value is 1324 and the “Expression of GzmB+Perforin+ … in tumor” value was 29.9. In the assay on endogenous CD8+ T cells (replicate 4), the “Expression of IFN-g … in tumor” value is 2246, the “Expression of TNF-α … in tumor” value was 780 and the “Expression of GzmB+Perforin+ … in tumor” value is 58.8. For the same substance, in the assay with endogenous CD8+ T cells (tumors, result in words), the “TNF-α expression of CD8+ T cells” value is given as “upregulated TNF-α expression”.

The record behind these values is publication PMC12867150, “A fungi-derived cyclic peptide enhances Th9-mediated antitumor immunity by targeting ZAP70 and SREBP1” (The Journal of Clinical Investigation, 2025).
